Values of other authors in patent publication US8871712B2, “Somatostatin analogue formulations” (Camurus AB, priority 2005, dated 2014).

Conditions: in vivo

Question: With `C[C@@H](O)[C@@H]1NC(=O)[C@H](CCCCN)NC(=O)[C@@H](Cc2c[nH]c3ccccc23)NC(=O)[C@H](Cc2ccccc2)NC(=O)[C@@H](NC(=O)[C@H](N)Cc2ccccc2)CSSC[C@@H](C(=O)N[C@H](CO)[C@@H](C)O)NC1=O` [Octreotide, D-Phe-Cys-Phe-D-Trp-Lys-Thr-Cys-Thr-ol (2-7 disulphide bridge)] as the compound, how does the Terminal half-life read?
Answer: around 1.7 hours
